In the supplement of paper PMC13380429:

Legend:
[1] = system: A549-ACE2 infected with SARS-CoV-2; assay: cell count relative to DMSO; higher = less toxic; details: 24 h
Caco-2 [2] = assay: cell viability relative to DMSO; higher = less toxic; details: 72 h
Calu-3 [3] = assay: as above; details: 72 h
HepG2 [4] = assay: as above; details: 72 h
U2OS [5] = assay: as above; details: 72 h
Vero E6 [6] = assay: as above; details: 72 h
[7] = system: A549-ACE2 infected with SARS-CoV-2; assay: SARS-CoV-2 infection rate relative to DMSO; higher = more infection; details: 24 h
A549-ACE2 [8] = assay: phospholipidosis EC50; higher = less potent phospholipidosis inducer
A549-ACE2 [9] = assay: drug-induced phospholipidosis relative to tamoxifen; higher = more phospholipidosis
[10] = system: A549-ACE2 infected with SARS-CoV-2; assay: morphology score (similarity to uninfected cells); higher = more like uninfected cells; details: 24 h
Caco-2 [11] = assay: relative viability EC50 (midpoint between 100% and the lowest measured viability); higher = less toxic; details: 72 h
Calu-3 [12] = assay: as above; details: 72 h
U2OS [13] = assay: as above; details: 72 h
Vero E6 [14] = assay: as above; details: 72 h
Caco-2 [15] = assay: drug sensitivity score (DSS) for viability; higher = more toxic; extreme values may be limits of the assay; details: 72 h
Calu-3 [16] = assay: as above; details: 72 h
HepG2 [17] = assay: as above; details: 72 h
U2OS [18] = assay: as above; details: 72 h
Vero E6 [19] = assay: as above; details: 72 h
HepG2 [20] = assay: relative viability EC50 (midpoint between 100% and the lowest measured viability); higher = less toxic; details: 72 h

COc1cc(-n2cnc3cc(-c4ccc(Cl)cc4)sc3c2=O)ccc1OCCN1CCCC1
Details	SARS-CoV-2 infection rate [%]	cell count [%]	cell viability [%]	morphology score	phospholipidosis EC50 [µM]
A549-ACE2 [8], 24 h	–	–	–	–	12.9
A549-ACE2 [8], 48 h	–	–	–	–	16.7
A549-ACE2 [8], 72 h	–	–	–	–	21
Caco-2 [2], 1 nM	–	–	111	–	–
Caco-2 [2], 10 nM	–	–	88.4	–	–
Caco-2 [2], 100 nM	–	–	104	–	–
Caco-2 [2], 1000 nM	–	–	103	–	–
Caco-2 [2], 10000 nM	–	–	88.7	–	–
Calu-3 [3], 1 nM	–	–	102	–	–
Calu-3 [3], 10 nM	–	–	102	–	–
Calu-3 [3], 100 nM	–	–	100	–	–
Calu-3 [3], 1000 nM	–	–	101	–	–
Calu-3 [3], 10000 nM	–	–	89.3	–	–
HepG2 [4], 1 nM	–	–	108	–	–
HepG2 [4], 10 nM	–	–	108	–	–
HepG2 [4], 100 nM	–	–	108	–	–
HepG2 [4], 1000 nM	–	–	93.9	–	–
HepG2 [4], 10000 nM	–	–	73.2	–	–
U2OS [5], 1 nM	–	–	92.4	–	–
U2OS [5], 10 nM	–	–	95.9	–	–
U2OS [5], 100 nM	–	–	95.7	–	–
U2OS [5], 1000 nM	–	–	102	–	–
U2OS [5], 10000 nM	–	–	90.6	–	–
Vero E6 [6], 1 nM	–	–	110	–	–
Vero E6 [6], 10 nM	–	–	104	–	–
Vero E6 [6], 100 nM	–	–	107	–	–
Vero E6 [6], 1000 nM	–	–	93.4	–	–
Vero E6 [6], 10000 nM	–	–	93.6	–	–
[1], 0.3 µM	–	104	–	–	–
[1], 3 µM	–	116	–	–	–
[1], 10 µM	–	120	–	–	–
[1], 30 µM	–	120	–	–	–
[7], 0.3 µM	98	–	–	–	–
[7], 3 µM	73	–	–	–	–
[7], 10 µM	20	–	–	–	–
[7], 30 µM	18	–	–	–	–
[10], 0.3 µM	–	–	–	0.28	–
[10], 3 µM	–	–	–	0.6	–
[10], 10 µM	–	–	–	0.87	–
[10], 30 µM	–	–	–	0.67	–

drug-induced phospholipidosis [%], A549-ACE2 [9]
Details	0.3 µM	0.833333 µM	3.33333 µM	6.66667 µM	10 µM	30 µM
24 h	0.98	-0.51	19.1	56.7	87.1	172
48 h	1.08	-1.67	14.3	36.9	63.3	141
72 h	2.44	-3.52	9.91	23.8	43.5	111

Details	drug sensitivity score	relative viability EC50 [µM]
Caco-2 [11]	–	> 10
Caco-2 [15]	0	–
Calu-3 [12]	–	> 10
Calu-3 [16]	0	–
HepG2 [17]	2	–
U2OS [13]	–	> 10
U2OS [18]	0	–
Vero E6 [14]	–	> 10
Vero E6 [19]	0	–

COc1ccc(NC(=O)c2ccc(-c3ccc(-c4noc(C)n4)cc3C)cc2)cc1OCCN(C)C
Details	SARS-CoV-2 infection rate [%]	cell count [%]	cell viability [%]	morphology score	phospholipidosis EC50 [µM]
A549-ACE2 [8], 24 h	–	–	–	–	1
A549-ACE2 [8], 48 h	–	–	–	–	2.13
A549-ACE2 [8], 72 h	–	–	–	–	3.02
Caco-2 [2], 1 nM	–	–	101	–	–
Caco-2 [2], 10 nM	–	–	102	–	–
Caco-2 [2], 100 nM	–	–	104	–	–
Caco-2 [2], 1000 nM	–	–	92.4	–	–
Caco-2 [2], 10000 nM	–	–	54	–	–
Calu-3 [3], 1 nM	–	–	101	–	–
Calu-3 [3], 10 nM	–	–	102	–	–
Calu-3 [3], 100 nM	–	–	105	–	–
Calu-3 [3], 1000 nM	–	–	92.5	–	–
Calu-3 [3], 10000 nM	–	–	11.2	–	–
HepG2 [4], 1 nM	–	–	121	–	–
HepG2 [4], 10 nM	–	–	95.5	–	–
HepG2 [4], 100 nM	–	–	109	–	–
HepG2 [4], 1000 nM	–	–	90.1	–	–
HepG2 [4], 10000 nM	–	–	6.6	–	–
U2OS [5], 1 nM	–	–	101	–	–
U2OS [5], 10 nM	–	–	105	–	–
U2OS [5], 100 nM	–	–	101	–	–
U2OS [5], 1000 nM	–	–	102	–	–
U2OS [5], 10000 nM	–	–	44.7	–	–
Vero E6 [6], 1 nM	–	–	98.1	–	–
Vero E6 [6], 10 nM	–	–	98	–	–
Vero E6 [6], 100 nM	–	–	96.7	–	–
Vero E6 [6], 1000 nM	–	–	93.1	–	–
Vero E6 [6], 10000 nM	–	–	20.1	–	–
[1], 0.1 µM	–	102	–	–	–
[1], 0.3 µM	–	99	–	–	–
[1], 1 µM	–	109	–	–	–
[1], 3 µM	–	126	–	–	–
[7], 0.1 µM	97	–	–	–	–
[7], 0.3 µM	95	–	–	–	–
[7], 1 µM	82	–	–	–	–
[7], 3 µM	26	–	–	–	–
[10], 0.1 µM	–	–	–	-0.01	–
[10], 0.3 µM	–	–	–	0.09	–
[10], 1 µM	–	–	–	0.43	–
[10], 3 µM	–	–	–	0.77	–

drug-induced phospholipidosis [%], A549-ACE2 [9]
Details	0.3 µM	0.833333 µM	3.33333 µM	6.66667 µM	10 µM
24 h	2.56	13.6	76.9	75.2	56
48 h	4.9	6.68	68	79.2	–
72 h	5.85	5.56	57.7	86.2	–

Details	drug sensitivity score	relative viability EC50 [µM]
Caco-2 [15]	3.7	–
Calu-3 [12]	–	2.47
Calu-3 [16]	6.1	–
HepG2 [17]	6.8	–
HepG2 [20]	–	2.29
U2OS [13]	–	3.33
U2OS [18]	2.8	–
Vero E6 [14]	–	2.45
Vero E6 [19]	5.5	–
